In paper PMC4861662 (ChemMedChem, 2016):
Where two headings read alike, the source gives them in different places.

Columns and labels:
Phase solubility diagram [1] = settings: for Highest drug concentration achieved with container / Initial slope of the PSD / Krel / Ka of container•drug complex: container M2C2; for Initial slope of the PSD: 20 mM sodium phosphate buffered D2O, pD 7.4, rt; for Krel: referenced to the weakest binding container (generally HP-β-CD); for Ka of container•drug complex: from PSD slope and S0 (equation 1)
Phase solubility diagram [2] = settings: container M2
Phase solubility diagram [3] = settings: for Highest drug concentration achieved with container / Initial slope of the PSD / Ka of container•drug complex: container SBE-β-CD; for Initial slope of the PSD: 20 mM sodium phosphate buffered D2O, pD 7.4, rt; for Ka of container•drug complex: from PSD slope and S0 (equation 1)
[4] = container M2, ref [20a],[21a], cited from earlier work; for Initial slope of the PSD: 20 mM sodium phosphate buffered D2O, pD 7.4, rt; for Krel: referenced to the weakest binding container (generally HP-β-CD), TL = too large to be determined because slope ≈ 1
[5] = container HP-β-CD; from PSD slope and S0 (equation 1); ref [20a],[21a]; cited from earlier work
Phase solubility diagram [6] = settings: for Initial slope of the PSD / Ka of container•drug complex / Krel: container M2C4; for Initial slope of the PSD: 20 mM sodium phosphate buffered D2O, pD 7.4, rt, Gel = gel formed; for Ka of container•drug complex: from PSD slope and S0 (equation 1); for Krel: referenced to the weakest binding container (generally HP-β-CD)
[7] = Inherent solubility of the drug; settings: 20 mM sodium phosphate buffered D2O, pD 7.4, rt
[8] = Inherent solubility of container by 1H NMR assay of saturated solution; assay type: physicochemical; settings: SBE-β-CD

Compound | Highest drug concentration achieved with container (Phase solubility diagram [1]) | Initial slope of the PSD (Phase solubility diagram [1]) | Krel (Phase solubility diagram [1]) | Highest drug concentration achieved with container (Phase solubility diagram [2]) | Highest drug concentration achieved with container (Phase solubility diagram [3]) | Initial slope of the PSD (Phase solubility diagram [3]) | Initial slope of the PSD [4] | Krel [4] | Ka of container•drug complex (Phase solubility diagram [1]) | Ka of container•drug complex [5] | Ka of container•drug complex (Phase solubility diagram [3]) | concentration of M2C4 above which gels form with drug (Phase solubility diagram [6]; M2C4 used as solubilizing agent) | Initial slope of the PSD (Phase solubility diagram [6]) | Ka of container•drug complex (Phase solubility diagram [6]) | Krel (Phase solubility diagram [6]) | S0, inherent solubility of the drug [7] | gel formation (Phase solubility diagram [1]; 68 mM container M2C2) | gel formation (Phase solubility diagram [6]; 68 mM container M2C4) | inherent solubility of container [8] | average Krel relative to HP-β-CD (Phase solubility diagram [3]; SBE-β-CD versus HP-β-CD, averaged over drugs of the test set)
COc1cc2c(cc1O)CC[C@@H]1[C@@H]2CC[C@]2(C)[C@@H](O)CC[C@@H]12 [2-Methoxy estradiol] | 34.1 mM | 0.49 | 12/– | 6.42 mM | 35.9 mM | 0.21 | 0.79 | 47/– | – | – | – | – | – | – | – | – | – | – | – | –
CCCSc1ccc2nc(NC(=O)OC)[nH]c2c1 [Albendazole] | 2.78 mM | 0.035 | 2.4 | 4.48 mM | 3.94 mM | 0.027 | 0.48 | 62 | 14000 M⁻¹ | 5400 M⁻¹ | 11000 M⁻¹ | – | – | – | – | – | – | – | – | –
CCCCc1oc2ccccc2c1C(=O)c1cc(I)c(OCCN(CC)CC)c(I)c1 [Amiodarone] | – | 0.65 | 19 | – | – | 0.60 | 1.03 | – | 28000 M⁻¹ | 1500 M⁻¹ | 23000 M⁻¹ | greater than 16 mM | – | – | – | – | – | – | – | –
O=C1CCc2ccc(OCCCCN3CCN(c4cccc(Cl)c4Cl)CC3)cc2N1 [Aripiprazole] | 9.26 mM | 0.28 | 7.7 | 3.20 mM | 8.44 mM | 0.048 | 0.31 | 8.8 | 17000 M⁻¹ | – | 2200 M⁻¹ | – | – | – | – | – | – | – | – | –
CC[C@@]1(O)C(=O)OCc2c1cc1n(c2=O)Cc2cc3ccccc3nc2-1 [Camptothecin] | 28.3 mM | 0.41 | 1 | 11.6 mM | 0 mM | 0 | 1.1 | – | 13000 M⁻¹ | – | – | – | – | – | – | – | – | – | – | –
C(=C\c1ccccc1)/CN1CCN(C(c2ccccc2)c2ccccc2)CC1 [Cinnarizine] | – | 0.26 | 170 | – | – | 0.008 | – | – | 25000 M⁻¹ | – | 580 M⁻¹ | – | – | – | – | – | – | – | – | –
C[C@]12CC[C@@H]3c4ccc(O)cc4CC[C@H]3[C@@H]1CC[C@@H]2O [Estradiol] | – | 0.67 | 9.1 | – | – | 0.59 | 0.92 | 51 | 230000 M⁻¹ | 26000 M⁻¹ | 170000 M⁻¹ | – | 0.59 | 160000 M⁻¹ | 6.5 | – | – | – | – | –
C#C[C@]1(O)CC[C@H]2[C@@H]3CCc4cc(O)ccc4[C@H]3CC[C@@]21C [Ethynyl Estradiol] | 33.6 mM | – | – | 10.5 mM | 131 mM | – | 1.1 | – | – | 36000 M⁻¹ | – | – | – | – | – | – | – | – | – | –
COc1ccc2c(c1)c(CC(=O)O)c(C)n2C(=O)c1ccc(Cl)cc1 [Indomethacin] | 6.69 mM | 0.13 | 11 | 6.70 mM | 9.92 mM | 0.23 | 0.47 | 67 | 25000 M⁻¹ | 2400 M⁻¹ | 51000 M⁻¹ | – | – | – | – | – | – | – | – | –
N[C@@H](Cc1ccc(N(CCCl)CCCl)cc1)C(=O)O [Melphalan] | 38.2 mM | 0.43 | 6.0/– | 16.1 mM | 87.8 mM | 0.50 | 1.1 | – | – | – | – | – | – | – | – | – | – | – | – | –
O=C(NC1=CC(=O)[C@H]2O[C@H]2[C@H]1O)c1cc2ccccc2[nH]c1=O [PBS-1086] | 16.5 mM | 0.70 | 1 | 12.5 mM | 0 mM | 0 | 0.89 | 3.5 | 510000 M⁻¹ | – | – | – | – | – | – | 0.0045 mM | – | – | – | –
CC/C(=C(\c1ccccc1)c1ccc(OCCN(C)C)cc1)c1ccccc1 [Tamoxifen] | – | – | – | – | – | – | 0.10 | 3.9 | – | 2400 M⁻¹ | – | – | – | – | – | – | – | – | – | –
Cc1c(Cl)cccc1Nc1ccccc1C(=O)O [Tolfenamic acid] | 6.79 mM | 0.11 | 16 | 5.6 mM | 8.07 mM | 0.11 | 0.54 | 150 | 66000 M⁻¹ | 4100 M⁻¹ | 64000 M⁻¹ | – | – | – | – | – | – | – | – | –
C[C@@H](c1ncncc1F)[C@](O)(Cn1cncn1)c1ccc(F)cc1F [Voriconazole] | 61.9 mM | 0.89 | 29 | 9.23 mM | 94.7 mM | 0.53 | – | – | 210000 M⁻¹ | – | 30000 M⁻¹ | – | 0.85 | 140000 M⁻¹ | 19 | – | no evidence of gel formation | no evidence of gel formation | – | –
sulfobutylether-β-cyclodextrin [SBE-β-CD] | – | – | – | – | – | – | – | – | – | – | – | – | – | – | – | – | – | – | > 175 mM | 12
